Results taken from US20200206350A1, “COMPOUNDS FOR REDUCING THE VISCOSITY OF BIOLOGICAL FORMULATIONS” (Merck Sharp & Dohme Corp., priority 2017, published 2020).
Counter-ions that a name gives are not always drawn. Marks after values point to notes of the source that are not given here.

System: pembrolizumab
Assay: Viscosity of pembrolizumab test formulations (mVROC viscometer)
Type: physicochemical
Conditions: 10 mM histidine buffer, 200 mg/mL pembrolizumab, 0.2 M excipient, pH 5.5
Experimental: Pembrolizumab formulations comprised the following: 10 mM histidine buffer, pembrolizumab at a concentration of 200 mg/mL, and the test excipient (pegylated excipient of the invention, as described herein) at a concentration of 200 mM, pH adjusted to pH 5.5. Pembrolizumab formulations without excipients consisted of 200 mg/mL pembrolizumab in 10 mM histidine buffer at pH 5.5. The 10 mM histidine buffer used with pembrolizumab formulations consisted of consists of 10 mM L-histidine in sterile water, pH adjusted to 5.5.
(§1) All viscosity measurements were conducted using the mVROC (Viscometer/Rheometer-On-A-Chip, RheoSense, Inc., San Ramon, Calif.). The test formulations were placed into a 250 μl Hamilton air-tight syringe, which was then placed inside the syringe jacket of the mVROC. The instrument injected formulation into the chip for viscosity measurement at an appropriate flow rate. Most measurements were done in duplicates.

Row | SMILES | Viscosity 1 | Viscosity 2 | Viscosity Average
1 | N=C(N)NCCC[C@H](N)C(=O)O [Arginine, reference compound] | 30.25 mPa-s | 30.55 mPa-s | 30.40 mPa-s
2 | COCCOCCOCC(=O)N[C@@H](Cc1c[nH]cn1)C(=O)O [Example 1, (S)-12-((1H-imidazol-4-yl)methyl)-10-oxo-2,5,8-trioxa-11-azatridecan-13-oic acid] | 23.12 mPa-s | 23.27 mPa-s | 23.20 mPa-s
3 | COCCOCCOCC(=O)N[C@@H](CCCNC(=N)N)C(=O)O [Example 2, (S)-12-(3-guanidinopropyl)-10-oxo-2,5,8-trioxa-11-azatridecan-13-oic acid] | 22.05 mPa-s | 22.24 mPa-s | 22.15 mPa-s
4 | COCCOCCN(C(=O)COCCOC)[C@@H](CCCNC(=N)N)C(=O)O [Example 3, (S)-5-guanidino-2-(2-(2-methoxyethoxy)-N-(2-(2-methoxyethoxy)ethyl)acetamido)pentanoic acid] | 21.12 mPa-s | 21.18 mPa-s | 21.15 mPa-s
5 | COCCOCCN(C(=O)COCCOC)[C@@H](Cc1c[nH]cn1)C(=O)O [Example 4, (S)-3-(1H-imidazol-4-yl)-2-(2-(2-methoxyethoxy)-N-(2-(2-methoxyethoxy)ethyl)acetamido)propanoic acid] | 19.64 mPa-s | 19.28 mPa-s | 19.46 mPa-s
6 | COCCOCCN(CCOCCOC)[C@@H](CCCNC(=N)N)C(=O)O [Example 5, (S)-2-(bis(2-(2-methoxyethoxy)ethyl)amino)-5-guanidinopentanoic acid] | 18.02* *Ave- rage of 4 values mPa-s | 18.37* *Ave- rage of 4 values mPa-s | 18.19** **Ave- rage of 8 values mPa-s
7 | COCCOCCN(CCOCCOC)[C@@H](Cc1c[nH]cn1)C(=O)O [Example 6, (S)-2-(bis(2-(2-methoxyethoxy)ethyl)amino)-3-(1H-imidazol-4-yl)propanoic acid] | 17.57* *Ave- rage of 3 values mPa-s | 18.10* *Ave- rage of 3 values mPa-s | 17.83** **Ave- rage of 6 values mPa-s
8 | COCCOCC(=O)N[C@@H](CCCCN)C(=O)O [Example 10, (S)-6-amino-2-(2-(2-methoxyethoxy)acetamido)hexanoic acid] | 26.39 mPa-s | 26.35 mPa-s | 26.37 mPa-s
9 | COCCOCCN(CCOCCOC)[C@@H](CCCCN)C(=O)O [Example 11, (S)-6-amino-2-(bis(2-(2-methoxyethoxy)ethyl)amino)hexanoic acid] | 21.36 mPa-s | 21.50 mPa-s | 21.43 mPa-s
10 | COCCOCCN[C@@H](Cc1c[nH]cn1)C(=O)O [Example 12, (S)-3-(1H-imidazol-4-yl)-2-((2-(2-methoxyethoxy)ethyl)amino)propanoic acid] | 22.19 mPa-s | 22.33 mPa-s | 22.26 mPa-s
11 | COCCOCC(=O)N[C@@H](Cc1c[nH]cn1)C(=O)O [Example 13, (2-(2-methoxyethoxy)acetyl)-L-histidine] | 20.05 mPa-s | 20.09 mPa-s | 20.07 mPa-s
12 | COCCOCCN[C@@H](CCCNC(=N)N)C(=O)O [Example 14, (S)-5-guanidino-2-((2-(2-methoxyethoxy)ethyl)amino)pentanoic acid] | 24.59 mPa-s | 24.76 mPa-s | 24.68 mPa-s
13 | COCCOCC(=O)N[C@@H](CCCNC(=N)N)C(=O)O [Example 15, (2-(2-methoxyethoxy)acetyl)-L-arginine dihydrochloride] | 18.67 mPa-s |  | 18.67 mPa-s
14 | COCCOCCOCCOCC(=O)N[C@@H](Cc1c[nH]cn1)C(=O)O [Example 16] | 23.33 mPa-s | 23.54 mPa-s | 23.44 mPa-s
15 | COCCOCCOCCOCC(=O)N[C@@H](CCCNC(=N)N)C(=O)O [Example 17, (2,5,8,11-tetraoxatridecan-13-oyl)-L-arginine] | 23.09 mPa-s | 22.82 mPa-s | 22.96 mPa-s
16 | COCCOCCOCCOCCN[C@@H](Cc1c[nH]cn1)C(=O)O [Example 18, (2,5,8,11-tetraoxatridecan-13-yl)-L-histidine] | 22.82 mPa-s | 22.47 mPa-s | 22.65 mPa-s
17 | COCCOCCOCCN[C@@H](Cc1c[nH]cn1)C(=O)O [Example 19, (2-(2-(2-methoxyethoxy)ethoxy)ethyl)-L-histidine] | 26.58 mPa-s | 26.83 mPa-s | 26.71 mPa-s
18 | N=C(N)NCCC[C@@H](C(=O)O)N(CCOCCO)CCOCCO [Example 20, (S)-2-(bis(2-(2-hydroxyethoxy)ethyl)amino)-5-guanidinopentanoic acid] | 25.28 mPa-s | 25.42 mPa-s | 25.35 mPa-s
19 | O=C(O)[C@H](Cc1c[nH]cn1)N(CCOCCO)CCOCCO [Example 21, (S)-2-(bis(2-(2-hydroxyethoxy)ethyl)amino)-3-(1H-imidazol-4-yl)propanoic acid] | 23.19 mPa-s | 23.16 mPa-s | 23.18 mPa-s
20 | COCCOCC(=O)N[C@@H](Cc1ccccc1)C(=O)O [Example 22] | 17.77 mPa-s | 17.63 mPa-s | 17.70 mPa-s
21 | COCCOCC(=O)N[C@@H](Cc1ccc(O)cc1)C(=O)O [Example 23, (2-(2-methoxyethoxy)acetyl)-L-tyrosine] | 20.15 mPa-s | 20.09 mPa-s | 20.12 mPa-s
22 | N[C@@H](Cc1c[nH]cn1)C(=O)O [Histidine, reference compound] | 35.79 mPa-s | 35.32 mPa-s | 35.56 mPa-s

System: Antibody B
Assay: Viscosity of Antibody B test formulations (mVROC viscometer)
Type: physicochemical
Conditions: 10 mM histidine buffer, 177 mg/mL Antibody B, 0.2 M excipient, pH 6.0
Experimental: Antibody B formulations comprised the following: 10 mM histidine buffer, Antibody B at a concentration of 177 mg/mL and the test excipient (pegylated excipient of the invention, as described herein) at a concentration of 200 mM, pH adjusted to pH 6.0. The Antibody B formulation without excipients consisted of 177 mg/mL Antibody B in 10 mM histidine buffer at pH 6.0. The 10 mM histidine buffer used with Antibody B consisted of 10 mM L-histidine in sterile water, pH adjusted to 6.0.
as §1

Row | SMILES | Viscosity 1 | Viscosity 2 | Viscosity Average
23 | COCCOCCN(CCOCCOC)[C@@H](CCCNC(=N)N)C(=O)O [Example 8, (S)-2-(bis(2-(2-methoxyethoxy)ethyl)amino)-5-guanidinopentanoic acid dihydrochloride] | 22.25 mPa-s | 22.19 mPa-s | 22.22 mPa-s
24 | COCCOCCN(CCOCCOC)[C@@H](Cc1c[nH]cn1)C(=O)O [Example 9, (S)-2-(bis(2-(2-methoxyethoxy)ethyl)amino)-3-(1H-imidazol-4-yl)propanoic acid dihydrochloride] | 26.55 mPa-s | 26.67 mPa-s | 26.61 mPa-s
